This assay deals with T1, Kv7.2/7.3 (Homo sapiens, UniProt O43525+O43526).
T1 construct: Kv7.2 tetracycline-induced, Kv7.3 constitutive
Put plainly: Kv7.2/7.3 Activation Assay (Thallium Flux Assay). The format is cell-based. The conditions noted are these: hKV7.2/7.3 cell line; test compound at single concentration of 10 μM; fluorescence at 90 sec normalized to positive control (retigabine, 30 μM). An excerpt:
The Thallium Flux Assay is used as a surrogate indicator of potassium channel activity.
The experimental protocol was adapted from the FluxOR™ II Green Potassium Ion Channel Assay User Guide (Pub. No. MAN0016084, Invitrogen). Conditions were optimized for the Kv7.2/7.3 cell line.
Cell Line: The hKV7.2/7.3 cell line was obtained from Chantest (cat. #CT6147).
Cell Culture: Kv7.2/7.3 cells were maintained in a media containing DMEM/F12; 50/50 (Fisher 11-330), 10% Fetal Bovine Serum (FBS) (Fisher 26-140), 100 units/mL Penicillin-Streptomycin (Fisher 15-140), 0.005 mg/ml Blasticidin (InvivoGen ant-bl-1), 0.5 mg/mL Geneticin (InvivoGen ant-gn-5), and 0.1 mg/mL Zeocin (Fisher R25001). One day prior to experimentation, cells were plated in 96 well clear bottom plates (Corning cat. #353219) in a media without Blasticidin, Geneticin, or Zeocin. In this cell line Kv7.3 channel expression is controlled by a constitutive promoter. Kv7.2 channel expression was induced by adding tetracycline (Sigma T7660) at a final concentration of 10 ng/mL overnight in a cell culture incubator at 37° C. and 5% CO2. On the day of assay, the cell culture medium in the 96-well plates was replaced by assay buffer containing the thallium-sensitive fluorescent sensor, FluxOR II Green prepared according to manufacturer's instructions. The 96-well plates were then incubated for 1 h at 37° C. Following the incubation, the FluxOR II Green-containing solution was replaced with extracellular solution.
Test Compound Plates: The test compound is diluted in a mixture of 0.1% DMSO/extracellular solution at a single concentration of 10 μM. Dilutions were made on a Biomek NXP (BECKMAN COULTER). Extracellular solution contained (in mM: 145 NaCl, 4 KCl, 2 CaCl2), 1 MgCl2, 10 HEPES, and 10 Glucose, pH 7.4).
Measurement and data analysis: Thallium-flux-mediated changes in intracellular fluorescence were made using a plate reader (Enspire, Perkin Elmer) set with an excitation wavelength of 475 nm and an emission wavelength of 530 nm. After a 15 sec baseline measurement, the stimulus buffer containing thallium and potassium was added to the 96-well plate containing FluxOR II Green-loaded cells and test compounds. Fluorescence values at 90 sec were normalized to the positive control (retigabine, 30 μM) and test compound activities were assigned categories according to the formula: “No Activity <0.15, “+” Moderate Activity 0.15-0.7, and “++” High Activity >0.7.
Turning to `Cn1nc(NC(=O)NC2CC(F)(F)C2)c(C2CCC2)c1-c1ccc(OC(F)(F)F)cc1` [Compound 285, 1-(4-cyclobutyl-1-methyl-5-(4-(trifluoromethoxy)phenyl)-1H-pyrazol-3-yl)-3-(3,3-difluorocyclobutyl)urea], the “Kv7.2/7.3 Activity” value is recorded as “+ (“+” Moderate Activity 0.15-0.7)”.

`Cn1nc(NC(=O)[C@H]2C[C@H](C(F)(F)F)C2)c(C2CCC2)c1-c1ccc(F)cc1` [Compound 119, (1R,3R)-N-(4-cyclobutyl-5-(4-fluorophenyl)-1-methyl-1H-pyrazol-3-yl)-3-(trifluoromethyl)cyclobutane-1-carboxamide]: the “Kv7.2/7.3 Activity” value is recorded as “++ (“++” High Activity ≥ 0.7)”.

As to `Cc1nc(C)c(-c2c(C3CCC3)c(NC(=O)C3(C(F)(F)F)CC3)nn2C)s1` [Compound 149, N-(4-cyclobutyl-5-(2,4-dimethylthiazol-5-yl)-1-methyl-1H-pyrazol-3-yl)-1-(trifluoromethyl)cyclopropane-1-carboxamide], the “Kv7.2/7.3 Activity” value is listed as “− (“−” No Activity < 0.15)”.

As for `Cn1nc(NC(=O)NCC2CC(F)(F)C2)c(C2CCC2)c1C1CC(F)(F)C1` [Compound 297, 1-(4-cyclobutyl-5-(3,3-difluorocyclobutyl)-1-methyl-1H-pyrazol-3-yl)-3-((3,3-difluorocyclobutyl)methyl)urea], the “Kv7.2/7.3 Activity” value was “++ (“++” High Activity ≥ 0.7)”.

Consider `Cc1c(NC(=O)CC(C)(C)C(F)(F)F)nn(C)c1-c1ccc(F)cc1` [Compound 20, 4,4,4-trifluoro-N-(5-(4-fluorophenyl)-1,4-dimethyl-1H-pyrazol-3-yl)-3,3-dimethylbutanamide], for which the “Kv7.2/7.3 Activity” value was “++ (“++” High Activity ≥ 0.7)”.

In the case of `Cn1nc(NC(=O)Cc2ccc(F)c(F)c2)c(C2CCC2)c1-c1ccc(OC(F)(F)F)cc1` [Compound 92, N-(4-cyclobutyl-1-methyl-5-(4-(trifluoromethoxy)phenyl)-1H-pyrazol-3-yl)-2-(3,4-difluorophenyl)acetamide], the “Kv7.2/7.3 Activity” value is “++ (“++” High Activity ≥ 0.7)”.

With `Cn1nc(NC(=O)C2(C(F)(F)F)CC2)c(C2CCC2)c1C1CC(F)(F)C1` [Compound 158, N-(4-cyclobutyl-5-(3,3-difluorocyclobutyl)-1-methyl-1H-pyrazol-3-yl)-1-(trifluoromethyl)cyclopropane-1-carboxamide], the “Kv7.2/7.3 Activity” value was “++ (“++” High Activity ≥ 0.7)”.

`Cn1nc(NC(=O)C2(C(C)(F)F)CC2)c(C2CCC2)c1-c1ccccc1F` [Compound 171, N-(4-cyclobutyl-5-(2-fluorophenyl)-1-methyl-1H-pyrazol-3-yl)-1-(1,1-difluoroethyl)cyclopropane-1-carboxamide]: the “Kv7.2/7.3 Activity” value is “+ (“+” Moderate Activity 0.15-0.7)”.

In the case of `Cn1nc(NC(=O)CC2(C(F)F)CC2)c(C2CCC2)c1-c1cc(F)c(F)c(F)c1` [Compound 265, N-(4-cyclobutyl-1-methyl-5-(3,4,5-trifluorophenyl)-1H-pyrazol-3-yl)-2-(1-(difluoromethyl)cyclopropyl)acetamide], the “Kv7.2/7.3 Activity” value was “++ (“++” High Activity ≥ 0.7)”.

For the compound `Cn1nc(NC(=O)CC2CC(F)(F)C2)c(C2CCC2)c1-c1cc(F)cc(F)c1` [Compound 258, N-(4-cyclobutyl-5-(3,5-difluorophenyl)-1-methyl-1H-pyrazol-3-yl)-2-(3,3-difluorocyclobutyl)acetamide], the “Kv7.2/7.3 Activity” value is “++ (“++” High Activity ≥ 0.7)”.

For `Cn1nc(NC(=O)C2(C(F)(F)F)CCC2)c(C2CCC2)c1-c1ccc(F)cc1` [Compound 124, N-(4-cyclobutyl-5-(4-fluorophenyl)-1-methyl-1H-pyrazol-3-yl)-1-(trifluoromethyl)cyclobutane-1-carboxamide], the “Kv7.2/7.3 Activity” value is recorded as “+ (“+” Moderate Activity 0.15-0.7)”.

In the case of `Cn1nc(NC(=O)C(C)(C)C(F)F)c(C2CCC2)c1-c1ccccc1F` [Compound 172, N-(4-cyclobutyl-5-(2-fluorophenyl)-1-methyl-1H-pyrazol-3-yl)-3,3-difluoro-2,2-dimethylpropanamide], the “Kv7.2/7.3 Activity” value is given as “+ (“+” Moderate Activity 0.15-0.7)”.

For `Cn1nc(NC(=O)C[C@@H]2CC(F)(F)C2(F)F)c(C2CCC2)c1C(F)(F)c1ccccc1` [Compound 32, (R)-N-(4-cyclobutyl-5-(difluoro(phenyl)methyl)-1-methyl-1H-pyrazol-3-yl)-2-(2,2,3,3-tetrafluorocyclobutyl)acetamide], the “Kv7.2/7.3 Activity” value was “++ (“++” High Activity ≥ 0.7)”.

With `Cn1nc(NC(=O)[C@H]2C[C@H]2F)c(C2CCC2)c1-c1ccc(F)cc1` [Compound 206, (1R,2R)-N-(4-cyclobutyl-5-(4-fluorophenyl)-1-methyl-1H-pyrazol-3-yl)-2-fluorocyclopropane-1-carboxamide], the “Kv7.2/7.3 Activity” value is on record as “+ (“+” Moderate Activity 0.15-0.7)”.

Take `Cn1nc(NC(=O)[C@H]2C[C@H](C)C2)c(C2CCC2)c1-c1ccc(OC(F)(F)F)cc1` [Compound 184, (1r,3r)-N-(4-cyclobutyl-1-methyl-5-(4-(trifluoromethoxy)phenyl)-1H-pyrazol-3-yl)-3-methylcyclobutane-1-carboxamide]: the “Kv7.2/7.3 Activity” value is listed as “++ (“++” High Activity ≥ 0.7)”.

Take `Cn1nc(NC(=O)C[C@@H]2CC(F)(F)C2(F)F)c(C2(C)CCC2)c1-c1ccc(F)cc1` [Compound 284, (R)-N-(5-(4-fluorophenyl)-1-methyl-4-(1-methylcyclobutyl)-1H-pyrazol-3-yl)-2-(2,2,3,3-tetrafluorocyclobutyl)acetamide]: the “Kv7.2/7.3 Activity” value is “++ (“++” High Activity ≥ 0.7)”.

On to `Cn1nc(NC(=O)C[C@H]2CC(F)(F)C2(F)F)c(C2CCC2)c1Cc1ccccc1` [Compound 16, (S)-N-(5-benzyl-4-cyclobutyl-1-methyl-1H-pyrazol-3-yl)-2-(2,2,3,3-tetrafluorocyclobutyl)acetamide], for which the “Kv7.2/7.3 Activity” value is “++ (“++” High Activity ≥ 0.7)”.

Consider `Cn1nc(NC(=O)CC2(O)CCCC2)c(C2CCC2)c1CC1CC1` [Compound 81, N-(4-cyclobutyl-5-(cyclopropylmethyl)-1-methyl-1H-pyrazol-3-yl)-2-(1-hydroxycyclopentyl)acetamide], for which the “Kv7.2/7.3 Activity” value is given as “+ (“+” Moderate Activity 0.15-0.7)”.

`CC(C)c1c(NC(=O)CC(C)(C)C)nn(C)c1-c1ccc(OC(F)(F)F)cc1` [Compound 23, N-(4-isopropyl-1-methyl-5-(4-(trifluoromethoxy)phenyl)-1H-pyrazol-3-yl)-3,3-dimethylbutanamide]: the “Kv7.2/7.3 Activity” value is “++ (“++” High Activity ≥ 0.7)”.

As for `Cn1nc(NC(=O)NC2CC3(C2)CC(F)(F)C3)c(C2CCC2)c1-c1ccc(F)cc1` [Compound 244, 1-(4-cyclobutyl-5-(4-fluorophenyl)-1-methyl-1H-pyrazol-3-yl)-3-(6,6-difluorospiro[3.3]heptan-2-yl)urea], the “Kv7.2/7.3 Activity” value is recorded as “− (“−” No Activity < 0.15)”.

In the case of `C[C@H](C(=O)Nc1nn(C)c(-c2ccc(F)cc2)c1C1CCC1)C(C)(C)C` [Compound 113, (S)-N-(4-cyclobutyl-5-(4-fluorophenyl)-1-methyl-1H-pyrazol-3-yl)-2,3,3-trimethylbutanamide], the “Kv7.2/7.3 Activity” value was “++ (“++” High Activity ≥ 0.7)”.

As to `CCn1nc(NC(=O)[C@H]2CC2(C)C)c(C2CC2)c1C` [Compound 10, (S)-N-(4-cyclopropyl-1-ethyl-5-methyl-1H-pyrazol-3-yl)-2,2-dimethylcyclopropane-1-carboxamide], the “Kv7.2/7.3 Activity” value is recorded as “+ (“+” Moderate Activity 0.15-0.7)”.

(Values after patent US20250171430A1, “PYRAZOLYL COMPOUNDS AS KV7 CHANNEL ACTIVATORS” (Biohaven Therapeutics Ltd., priority 2022, published 2025).)
